Laboratory results from PubChem BioAssay (NCI).
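Compound exposure: 48 hours, 5 concentrations, 96-well plates. GI50 marks 50% less growth. TGI: concentration producing complete growth inhibition.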

Columns and labels:
Test in all cases: DTP human tumour cell line panel, 48 h
HCC-2998 colon = tested on: HCC-2998 colon
SF-268 CNS = tested on: SF-268 CNS
SW-620 colon = tested on: SW-620 colon
TK-10 renal = tested on: TK-10 renal
SNB-19 CNS = tested on: SNB-19 CNS
DU-145 prostate = tested on: DU-145 prostate
LOX IMVI melanoma = tested on: LOX IMVI melanoma
HOP-62 NSCLC = tested on: HOP-62 NSCLC
UACC-62 melanoma = tested on: UACC-62 melanoma
EKVX NSCLC = tested on: EKVX NSCLC

SMILES | GI50 (HCC-2998 colon) | TGI (HCC-2998 colon) | GI50 (SF-268 CNS) | TGI (SF-268 CNS) | GI50 (SW-620 colon) | TGI (SW-620 colon) | GI50 (TK-10 renal) | TGI (TK-10 renal) | GI50 (SNB-19 CNS) | TGI (SNB-19 CNS) | GI50 (DU-145 prostate) | TGI (DU-145 prostate) | GI50 (LOX IMVI melanoma) | TGI (LOX IMVI melanoma) | GI50 (HOP-62 NSCLC) | TGI (HOP-62 NSCLC) | GI50 (UACC-62 melanoma) | TGI (UACC-62 melanoma) | GI50 (EKVX NSCLC) | TGI (EKVX NSCLC)
O=C1/C(=C\c2ccc(F)cc2)CN(C(=O)c2ccccc2F)C/C1=C\c1ccc(F)cc1 | 1.81 µM | 3.32 µM | 2.02 µM | 4.97 µM | 0.428 µM | 1.73 µM | 1.97 µM | 4.27 µM | 1.58 µM | 3.55 µM | 2.07 µM | 4.15 µM | 0.28 µM | 0.957 µM | 2.04 µM | 4.66 µM | 1.46 µM | 3.05 µM | – | –
CC(=O)[CH-]C(=O)c1ccccc1.CC(=O)[CH-]C(=O)c1ccccc1.Cl.[O-]c1ccnc2ccccc12.[O-]c1ccnc2ccccc12.[Ti+4] | > 100 µM | > 100 µM | > 100 µM | > 100 µM | > 100 µM | > 100 µM | – | – | > 100 µM | > 100 µM | – | – | > 100 µM | > 100 µM | > 100 µM | > 100 µM | > 100 µM | > 100 µM | > 100 µM | > 100 µM
O=C(NC1CC1)c1c(O)[nH]c(=S)[nH]c1=O | – | – | – | > 100 µM | – | > 100 µM | – | > 100 µM | – | > 100 µM | – | – | – | > 100 µM | – | > 100 µM | – | > 100 µM | – | –
Cc1ccccc1NC(=O)/C(=N\NC(N)=S)C(C#N)c1ccccc1 (stereo unspecified) | – | > 100 µM | – | > 100 µM | – | > 100 µM | – | > 100 µM | – | > 100 µM | – | – | – | > 100 µM | – | > 100 µM | – | > 100 µM | – | > 100 µM
Cc1cccc(C)c1NC(=O)CCC(=O)NC(N)=NC#N | – | > 100 µM | – | > 100 µM | – | > 100 µM | – | > 100 µM | – | > 100 µM | – | – | – | > 100 µM | – | > 100 µM | – | > 100 µM | – | > 100 µM
Cc1ccc(S(=O)(=O)OCOS(=O)(=O)c2ccc(C)cc2)cc1 | – | > 100 µM | – | > 100 µM | – | > 100 µM | – | > 100 µM | – | > 100 µM | – | – | – | > 100 µM | – | > 100 µM | – | – | – | > 100 µM
Cc1ccc2c(c1)-c1c3c(nn1C)-c1ccccc1SC3O2 (stereo unspecified) | – | > 100 µM | – | > 100 µM | – | > 100 µM | – | > 100 µM | – | – | – | – | – | > 100 µM | – | > 100 µM | – | – | – | > 100 µM
Cc1cccc(NC(=O)C(=O)C(C2OC(=O)c3ccccc32)[N+](=O)[O-])c1C (stereo unspecified) | – | 27 µM | – | 24.7 µM | – | 20.9 µM | – | 32 µM | – | 35.1 µM | – | – | – | 6.26 µM | – | 31.1 µM | – | 23.1 µM | – | 46.3 µM
COc1ccc(Oc2nc3cc(N)cc(N)c3nc2-c2ccccc2)cc1 | – | – | 20.8 µM | > 100 µM | 88.2 µM | > 100 µM | 53.5 µM | > 100 µM | 65 µM | > 100 µM | 69.4 µM | > 100 µM | 34.7 µM | > 100 µM | – | 40.8 µM | 63.5 µM | > 100 µM | 24.7 µM | 63.1 µM
COc1cc(C(=O)/C=C/c2cc(-c3ccc4c(c3)OCO4)n[nH]2)cc(OC)c1OC | 2.02 µM | 4.07 µM | 2.45 µM | 7.64 µM | 1.62 µM | 3.8 µM | 2.9 µM | 7.17 µM | 2.34 µM | 11.7 µM | 2.92 µM | 9.16 µM | – | – | 2.32 µM | 6.24 µM | 1.81 µM | 3.89 µM | – | –
CCC12C=CCN(CCc3c([nH]c4ccccc34)/C=C\1)C2 (stereo unspecified) | – | > 100 µM | – | > 100 µM | – | > 100 µM | – | – | – | > 100 µM | – | – | – | > 100 µM | – | > 100 µM | – | > 100 µM | – | > 100 µM
COC(=O)[C@H](Cc1cn(C)cn1)NC(=O)[C@H](CC(=O)OCc1ccccc1)NC(=O)Nc1cc(C(F)(F)F)cc(C(F)(F)F)c1 | – | – | 4.51 µM | 18.1 µM | 6.66 µM | 21.1 µM | – | – | 13.8 µM | 28.5 µM | 6.18 µM | 19.3 µM | 2.96 µM | 8.9 µM | 5.03 µM | 16.9 µM | – | – | – | –
Nc1cccc2c1-c1c(cccc1[N+](=O)[O-])C2=O | – | > 100 µM | – | > 100 µM | – | > 100 µM | – | > 100 µM | – | > 100 µM | – | – | – | > 100 µM | – | > 100 µM | – | > 100 µM | – | > 100 µM
C[P+]1(Cc2ccccc2)CCCC1 | – | > 100 µM | – | – | – | > 100 µM | – | > 100 µM | – | > 100 µM | – | – | – | > 100 µM | – | > 100 µM | – | > 100 µM | – | > 100 µM
O=C(O)c1ccc2c(c1)C(=O)N(c1ccc(S(=O)(=O)c3ccc(N4C(=O)c5ccc(C(=O)O)cc5C4=O)cc3)cc1)C2=O | – | – | – | > 100 µM | – | > 100 µM | – | > 100 µM | – | > 100 µM | – | – | – | > 100 µM | – | > 100 µM | – | > 100 µM | – | > 100 µM
